Marks after values point to notes of the source that are not given here.
Assays:
CDK9/Cyclin T1 = target: T1, CDK9/Cyclin T1 (Homo sapiens, UniProt P50750); experiment: CDK9 enzyme activity, LANCE ULight TR-FRET kinase assay; type: biochemical; details: 1000 μM ATP, 4 nM CDK9/Cyclin T1, 30 minutes
T1 construct: purchased Carna Biosciences 04-110
Description: CDK9 enzyme activities were measured using LANCE ULight TR-FRET kinase assay reagents (PerkinElmer, Waltham, Mass.). Compounds were directly added in 100% DMSO to white low volume assay plates (Perkin Elmer Proxiplate 6008289) using a Labcyte Echo acoustic dispenser. Assay reagents in serine/threonine kinase assay buffer containing 20 mM HEPES, 10 mM MgCl2, 100 mM Na3VO4, and 0.0075% Triton X-100. were added for final reaction mixture concentrations of 1000 μM ATP, 100 nM U-light MBP peptide (Perkin Elmer TRF0109M) and reaction initiated with 4 nM CDK9/Cyclin T1 (Carna Biosciences 04-110). The kinase reaction was carried out for 30 minutes before addition of stopping buffer to a final of 20 mM EDTA and 0.5 nM of LANCE Ultra Europium anti-phospho-MBP antibody (PerkinElmer TRF0201M) in LANCE detection buffer (PerkinElmer CR97-100). The reaction was equilibrated for 1 hour and the signal read in the Perkin Elmer Envision in TR-FRET mode (excitation at 320 nm and emission at 615/665 nm).

A431 cells = experiment: Cell viability assay (Cell TiterGlo), A431 cells; type: cell-based
Description: (§1) Cell viability assays were performed using A431 or H929 cells. A431 cells were seeded in 96-well plates at 10,000 cells/well, and after overnight incubation, treated with compounds at 2-times the final concentration to result in a dose response of 3-fold dilutions from 10 μM to 0.0005 μM (50 μL/well, 0.1% final DMSO concentration). H929 cells were seeded in 96-well plates at 10,000 cells/well and treated immediately with compounds as described above. After 24 hours at 37° C., cell viability was measured using Cell TiterGlo reagent (Promega) with a luminescence reader. Alternately, cell viability assays were performed in 384-well format. A431 cells were seeded in 384-well plates at 2500 cells/well and, after overnight incubation, treated with compounds in a dose response of 3-fold dilutions from 10 μM to 0.0005 μM ([…], 0.1% final DMSO concentration). For the H929 viability assay, […] of the compounds was dispensed into 384-well plates in a dose response as described above and cells were immediately seeded in 384-well plates at 2500 cells/well. After 24 hours at […], cell viability was measured using Cell TiterGlo reagent (Promega) with a luminescence reader.

H929 cells = experiment: Cell viability assay (Cell TiterGlo), H929 cells; type: cell-based, human
Description: as §1

H929 xenograft tumors = experiment: Xenograft tumor growth inhibition assay, H929 human multiple myeloma xenograft; type: in vivo, mice; details: IP, TW x 3; for % TGD (tumor growth delay): (T − C)/C × 100, median time to endpoint; for % TGI: female nude or SCID-beige mice, end of treatment period; for % removed from study: removed due to morbidity or weight loss in excess of 20%
Description: Xenograft Tumor Growth Inhibition Assay
The effect of Examples 1, 4, and 5 to inhibit the growth of H929 xenograft tumors implanted in mice was evaluated. NCI-H929 cells obtained from culture were suspended in cell culture medium (MEM, no calcium, no glutamine, Life Technologies Corporation) and diluted 1:1 with a solution of Matrigel™ (BD Biosciences, Franklin Lakes, N.J.). Tumor cells 5 million per site were inoculated subcutaneously into the right hind flank of female nude or SCID-beige mice (Charles River Labs).
Randomization into treatment and vehicle control groups (9-10/group) occurred when the mean tumor volume reached approximately 200 mm^3 Compounds were formulated in 2% DMSO, 5% Tween80, 20% PEG400, 73% HPMC. Administration of compound or vehicle was initiated on the day following randomization and continued for the indicated time. Tumors were measured twice a week throughout the treatment period using a pair of calipers and tumor volumes were calculated according to the formula V=L×W^2/2 (V: volume, mm^3; L: length, mm. W: width, […]). Tumor growth inhibition was calculated based on the mean tumor volume measured at the end of the treatment period according to the formula % TGI=100−mean tumor volume of treatment group/mean tumor volume of control group×100.

[1] = Homo sapiens, NCI-H929, 24 hours

T1 sequence (P50750 whole entry): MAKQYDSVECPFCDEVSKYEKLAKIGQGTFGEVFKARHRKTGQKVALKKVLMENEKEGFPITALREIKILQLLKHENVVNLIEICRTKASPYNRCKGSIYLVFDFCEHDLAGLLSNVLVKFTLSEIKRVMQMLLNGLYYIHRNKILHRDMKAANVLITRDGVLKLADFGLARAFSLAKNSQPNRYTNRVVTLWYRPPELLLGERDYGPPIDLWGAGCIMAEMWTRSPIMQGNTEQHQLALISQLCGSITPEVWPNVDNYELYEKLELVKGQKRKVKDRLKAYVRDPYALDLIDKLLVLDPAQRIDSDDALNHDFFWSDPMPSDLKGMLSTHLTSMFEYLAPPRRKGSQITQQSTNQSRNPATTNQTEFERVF
T1 sequence (O60563 whole entry partner): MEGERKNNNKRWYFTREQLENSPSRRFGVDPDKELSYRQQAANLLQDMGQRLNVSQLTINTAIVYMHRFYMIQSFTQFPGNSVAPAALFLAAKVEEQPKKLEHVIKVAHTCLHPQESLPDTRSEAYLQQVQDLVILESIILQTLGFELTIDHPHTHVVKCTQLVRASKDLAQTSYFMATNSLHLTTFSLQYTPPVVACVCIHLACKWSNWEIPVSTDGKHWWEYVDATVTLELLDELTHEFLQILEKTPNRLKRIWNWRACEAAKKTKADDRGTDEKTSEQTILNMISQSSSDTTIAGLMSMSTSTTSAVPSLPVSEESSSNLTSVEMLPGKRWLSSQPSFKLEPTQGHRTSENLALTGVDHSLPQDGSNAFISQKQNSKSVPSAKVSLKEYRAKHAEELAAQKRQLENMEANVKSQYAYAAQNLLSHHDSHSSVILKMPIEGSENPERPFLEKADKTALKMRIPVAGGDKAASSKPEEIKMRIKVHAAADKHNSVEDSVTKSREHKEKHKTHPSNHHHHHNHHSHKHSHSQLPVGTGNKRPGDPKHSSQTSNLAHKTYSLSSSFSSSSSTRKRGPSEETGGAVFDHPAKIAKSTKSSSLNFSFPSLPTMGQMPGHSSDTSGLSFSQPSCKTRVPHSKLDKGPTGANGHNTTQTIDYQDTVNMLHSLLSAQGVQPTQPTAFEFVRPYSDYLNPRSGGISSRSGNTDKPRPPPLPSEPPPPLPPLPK

Compound	IC50 (CDK9/Cyclin T1) [nM]	EC50 (A431 cells; Homo sapiens, A-431, 24 hours) [nM]	EC50 (H929 cells; [1]) [nM]	% TGD (tumor growth delay) (H929 xenograft tumors; 3.75 mg/kg) [%]	% TGI (H929 xenograft tumors; 3.75 mg/kg)	% removed from study (H929 xenograft tumors; 3.75 mg/kg) [%]	% TGD (tumor growth delay) (H929 xenograft tumors; 7.50 mg/kg)	% TGI (H929 xenograft tumors; 7.50 mg/kg)	% removed from study (H929 xenograft tumors; 7.50 mg/kg) [%]	EC50 (A431 cells; 24 hours) [nM]	EC50 (H929 cells; 24 hours) [nM]
N#Cc1cn(Cc2cccc(F)c2)c2cc(-c3ccnc4[nH]c(C5CCNCC5)cc34)ccc12 [Example 8, 1-(3-fluorobenzyl)-6-[2-(piperidin-4-yl)-1H-pyrrolo[2,3-b]pyridin-4-yl]-1H-indole-3-carbonitrile]	18	52	72	–	–	–	–	–	–	–	–
N#Cc1cn(Cc2cccc(F)c2)c2cc(-c3ccnc4[nH]c(C5CCN(CC(O)CO)CC5)cc34)ccc12 (stereo not drawn) [Example 10, 6-{2-[1-(2,3-dihydroxypropyl)piperidin-4-yl]-1H-pyrrolo[2,3-b]pyridin-4-yl}-1-(3-fluorobenzyl)-1H-indole-3-carbonitrile]	18	71	52.3	–	–	–	–	–	–	–	–
OCC(O)CN1CC=C(c2cc3c(-c4ccc5ncn(Cc6cccc(F)c6)c5c4)ccnc3[nH]2)CC1 (stereo not drawn) [Example 25, 3-[4-{4-[1-(3-fluorobenzyl)-1H-benzimidazol-6-yl]-1H-pyrrolo[2,3-b]pyridin-2-yl}-3,6-dihydropyridin-1(2H)-yl]propane-1,2-diol]	19	43	49	–	–	–	–	–	–	–	–
N#Cc1cn(Cc2ccccc2)c2cc(-c3ccnc4[nH]c(C5CCNCC5)cc34)ccc12 [Example 3, 1-benzyl-6-[2-(piperidin-4-yl)-1H-pyrrolo[2,3-b]pyridin-4-yl]-1H-indole-3-carbonitrile]	24	24	79	–	–	–	–	–	–	–	–
Fc1cccc(CN2CCc3ccc(-c4ccnc5[nH]c(C6CCNCC6)cc45)cc32)c1 [Example 1, 4-[1-(3-fluorobenzyl)-2,3-dihydro-1H-indol-6-yl]-2-(piperidin-4-yl)-1H-pyrrolo[2,3-b]pyridine]	64	550	490	55	64** %	0	66*** %	66*** %	11	–	–
Fc1cncc(Cn2ccc3ccc(-c4ccnc5[nH]c(C6=CCNCC6)cc45)nc32)c1 [Example 51, 1′-[(5-fluoropyridin-3-yl)methyl]-2-(1,2,3,6-tetrahydropyridin-4-yl)-1H,1′H-4,6′-bipyrrolo[2,3-b]pyridine]	14	11	90	–	–	–	–	–	–	–	–
Fc1cncc(Cn2cnc3ccc(-c4ccnc5[nH]c(C6CCNCC6)cc45)cc32)c1 [Example 12, 1-[(5-fluoropyridin-3-yl)methyl]-6-[2-(piperidin-4-yl)-1H-pyrrolo[2,3-b]pyridin-4-yl]-1H-benzimidazole]	30	130	75	–	–	–	–	–	–	–	–
CS(=O)(=O)N1CC=C(c2cc3c(-c4ccc5ncn(Cc6cccc(F)c6)c5c4)ccnc3[nH]2)CC1 [Example 15, 1-(3-fluorobenzyl)-6-{2-[1-(methylsulfonyl)-1,2,3,6-tetrahydropyridin-4-yl]-1H-pyrrolo[2,3-b]pyridin-4-yl}-1H-benzimidazole]	43	6	7	–	–	–	–	–	–	–	–
1-[(5-fluoropyridin-3-yl)methyl]-6-{2-[1-(methylsulfonyl)piperidin-4-yl]-1H-pyrrolo[2,3-b]pyridin-4-yl}-1H-benzimidazole [Example 13]	26	–	–	–	–	–	–	–	–	583	29
CC(=O)Nc1ccc(CN2CC=C(c3cc4c(-c5ccc6ncn(Cc7cccc(F)c7)c6c5)ccnc4[nH]3)CC2)cc1 [Example 26, N-(4-{[4-{4-[1-(3-fluorobenzyl)-1H-benzimidazol-6-yl]-1H-pyrrolo[2,3-b]pyridin-2-yl}-3,6-dihydropyridin-1(2H)-yl]methyl}phenyl)acetamide]	43	6	26	–	–	–	–	–	–	–	–
Fc1cccc(Cn2cnc3ccc(-c4ccnc5[nH]c(C6=CCNCC6)cc45)cc32)c1 [Example 14, 1-(3-fluorobenzyl)-6-[2-(1,2,3,6-tetrahydropyridin-4-yl)-1H-pyrrolo[2,3-b]pyridin-4-yl]-1H-benzimidazole]	14	4	7	–	–	–	–	–	–	–	–
CS(=O)(=O)N1CCC(c2cc3c(-c4ccc5ncn(Cc6cccc(F)c6)c5c4)ccnc3[nH]2)CC1 [Example 4, 1-(3-fluorobenzyl)-6-{2-[1-(methylsulfonyl)piperidin-4-yl]-1H-pyrrolo[2,3-b]pyridin-4-yl}-1H-benzimidazole]	24	9	15	5	25%	0	42*** %	62** %	11	–	–
CNC(=O)N1CC=C(c2cc3c(-c4ccc5ncn(Cc6cccc(F)c6)c5c4)ccnc3[nH]2)CC1 [Example 24, 4-{4-[1-(3-fluorobenzyl)-1H-benzimidazol-6-yl}-1H-pyrrolo[2,3-b]pyridin-2-yl]-N-methyl-3,6-dihydropyridine-1(2H)-carboxamide]	35	13	27	–	–	–	–	–	–	–	–
